In the supplement of paper PMC11208160:

Assay: recombinant UMI read abundance after kanamycin selection (control-corrected) (log10(CPM+1)); higher = more efficient recombination; extreme values may be limits of the assay; sequences stand for … in AGTGCAGAGAAAATCGGCCAGTTTTCTCTGCCTGCAGTCCGCATGCCGTGGGACCCCTTGGGTTCTAACCTGTTGCCTAGATTTATGCAGCGGACTGCCTTTCTCCCAAAGTGATAAACCGG…AGGTTGGTTTCACT; site = the 11-nt donor
In short: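 The measure is log10(CPM+1) for recombinant UMIs. These were PCR-amplified across the donor–target junction and sequenced after Escherichia coli carrying a donor and donor-binding-loop pair library and a target plasmid with T7-inducible IS621 bridge recombinase was plated on IPTG (0.07 mM) plus kanamycin or unselected. CPM were averaged over two replicates and scaled by control-derived factors.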
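Also: IS621 bridge recombinase in Escherichia coli cells against a fixed T5 target plasmid.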

Sequence	recombinant UMI read abundance (log10)
ACAGTATCATGGACCGGTTTTCCCGGTAATCCGTATTTGCA (site GCAATATCTTG)	1.63
CTACTAACATGGACCGGTTTTCCCGGTAATCCGTATTTGGA (site CTACTGACTTC)	0.00472
CAAGTCACATGGACCGGTTTTCCCGGTAATCCGTATTTGGG (site CAAGTCTCTCC)	0.493
TGCCGTTCATGGACCGGTTTTCCCGGTAATCCGTATTTGAG (site TGCCGTTCTCT)	0.00558
CGCAATCCATGGACCGGTTTTCCCGGTAATCCGTATTTGTT (site CGCAATCCTAA)	0.698
CGATCAACATGGACCGGTTTTCCCGGTAATCCGTATTTGCT (site CGATCACCTAG)	0
AATGTGTCATGGACCGGTTTTCCCGGTAATCCGTATTTGAC (site AATGTGTCTTT)	0.181
AATGTGTCATGGACCGGTTTTCCCGGTAATCCGTATTTGAC (site AATGTGTCTGG)	0
CCCATATCATGGACCGGTTTTCCCGGTAATCCGTATTTGTA (site CCCATATCTAA)	0.0053
TGGGAATCATGGACCGGTTTTCCCGGTAATCCGTATTTGCG (site TTGGAATCTCG)	0.459
AATGTGTCATGGACCGGTTTTCCCGGTAATCCGTATTTGAC (site AATCTGTCTGT)	0
GCGAAAACATGGACCGGTTTTCCCGGTAATCCGTATTTGTT (site GCGAAAACTAA)	2.31
GTACTCGCATGGACCGGTTTTCCCGGTAATCCGTATTTGCG (site GTACTCGCTCG)	0.0142
GTAGGCGCATGGACCGGTTTTCCCGGTAATCCGTATTTGCG (site GTAGGCGCTCG)	1.47
AACACCCCATGGACCGGTTTTCCCGGTAATCCGTATTTGAG (site AACACCCCTCT)	0.0941
CATCTCTCATGGACCGGTTTTCCCGGTAATCCGTATTTGTA (site CGTCTCTCTTA)	1.23
CACTACTCATGGACCGGTTTTCCCGGTAATCCGTATTTGCC (site CACTACTCTGG)	2.55
GCTTGCCCATGGACCGGTTTTCCCGGTAATCCGTATTTGAT (site GCTTGCCCTCT)	0.0236
TCGCACACATGGACCGGTTTTCCCGGTAATCCGTATTTGCG (site TCGCACACTCG)	0.00409
AAGGTGTCATGGACCGGTTTTCCCGGTAATCCGTATTTGAC (site AAAGTGTCTGT)	1.13
ACACGAACATGGACCGGTTTTCCCGGTAATCCGTATTTGTC (site ACCCGAACTGA)	0
TCTACCGCATGGACCGGTTTTCCCGGTAATCCGTATTTGCG (site TCTACCGCTCG)	0.0133
ACCTAGCCATGGACCGGTTTTCCCGGTAATCCGTATTTGCC (site GCCTAGCCTGG)	0
GCAAGATCATGGACCGGTTTTCCCGGTAATCCGTATTTGGA (site GCAAGATCTTC)	1.69
CACGGACCATGGACCGGTTTTCCCGGTAATCCGTATTTGTT (site CACGGACCTAA)	0.00996

Sequence	recombinant UMI read abundance (log10)
ACAGTATCATGGACCGGTTTTCCCGGTAATCCGTATTTGCA (site ACGGTTTCTTG)	0.0105
CACGGCCCATGGACCGGTTTTCCCGGTAATCCGTATTTGCT (site CACGGCCCTAG)	1.12
CTGCTAGCATGGACCGGTTTTCCCGGTAATCCGTATTTGCT (site CTGCTACCTAG)	0
ACGCCGTCATGGACCGGTTTTCCCGGTAATCCGTATTTGGT (site ACGCCGTCTAC)	1.61
TCCCATACATGGACCGGTTTTCCCGGTAATCCGTATTTGCG (site TCCCATACTCG)	0.00752
GCTTGCCCATGGACCGGTTTTCCCGGTAATCCGTATTTGAT (site GCTTGGCCTAT)	0.0246
ACAGTATCATGGACCGGTTTTCCCGGTAATCCGTATTTGCA (site ACAGCATCTTA)	0.00439
GACTTGACATGGACCGGTTTTCCCGGTAATCCGTATTTGCT (site AACTTGACTAG)	1.3
GAAGATTCATGGACCGGTTTTCCCGGTAATCCGTATTTGTT (site GAATATTCTAA)	0
GCAGGAGCATGGACCGGTTTTCCCGGTAATCCGTATTTGGA (site GCAGGAGCTTC)	1.41
ACAGTGCCATGGACCGGTTTTCCCGGTAATCCGTATTTGCA (site ACAGTGCCTTG)	1.38
CGTTGGTCATGGACCGGTTTTCCCGGTAATCCGTATTTGCA (site CGTTGGTCTTG)	1.29
AGGACTACATGGACCGGTTTTCCCGGTAATCCGTATTTGAC (site AGGACTCCTGT)	0
CCGTTTCCATGGACCGGTTTTCCCGGTAATCCGTATTTGCT (site CCGTTTGCTAG)	0
TTAGAATCATGGACCGGTTTTCCCGGTAATCCGTATTTGAC (site CTAGTATCTGT)	0
TAGGTATCATGGACCGGTTTTCCCGGTAATCCGTATTTGCG (site TAGGGATCTCG)	1.7
GATTGGACATGGACCGGTTTTCCCGGTAATCCGTATTTGAC (site GATCGGACTGT)	0.745
GTGCATCCATGGACCGGTTTTCCCGGTAATCCGTATTTGGT (site GTGCATGCTAC)	0
AGTCTTTCATGGACCGGTTTTCCCGGTAATCCGTATTTGAC (site AGCCTTTCTGT)	0.743
CTTGCATCATGGACCGGTTTTCCCGGTAATCCGTATTTGAT (site CTTGCATCTAT)	0.497
ACCTAGCCATGGACCGGTTTTCCCGGTAATCCGTATTTGCC (site CCCTAGCCTGG)	0
GGTCTAACATGGACCGGTTTTCCCGGTAATCCGTATTTGTA (site GGTCTAACTTA)	0.607
ACAGTATCATGGACCGGTTTTCCCGGTAATCCGTATTTGCA (site ATAGTTTCTTG)	0.0207
AGGAATACATGGACCGGTTTTCCCGGTAATCCGTATTTGCT (site AGGAAGACTTG)	0
GGTACGTCATGGACCGGTTTTCCCGGTAATCCGTATTTGTC (site GGTACGTCTAA)	0.0158

Sequence	recombinant UMI read abundance (log10)
TGTGGAACATGGACCGGTTTTCCCGGTAATCCGTATTTGTT (site CGTGGAACTAA)	0.0659
TCAGAGACATGGACCGGTTTTCCCGGTAATCCGTATTTGTG (site TCAGAGACTCC)	0.353
TGTACAACATGGACCGGTTTTCCCGGTAATCCGTATTTGAC (site TGTACAGCTGT)	0
TTATCGTCATGGACCGGTTTTCCCGGTAATCCGTATTTGGC (site TTATCGTCTGC)	1.36
GGCAATCCATGGACCGGTTTTCCCGGTAATCCGTATTTGAA (site GGCAATCCTTG)	0
TAGGATTCATGGACCGGTTTTCCCGGTAATCCGTATTTGCG (site TAGGAATCTCG)	1.73
GCTATCTCATGGACCGGTTTTCCCGGTAATCCGTATTTGAA (site GCTATCTCTTT)	1.86
AGGACTACATGGACCGGTTTTCCCGGTAATCCGTATTTGAC (site AGGCCTACTGT)	0.988
TTCCGCGCATGGACCGGTTTTCCCGGTAATCCGTATTTGCC (site TTCCGCGCTGG)	0.632
TCCGCTACATGGACCGGTTTTCCCGGTAATCCGTATTTGTC (site TCCGCTACTGA)	0
TAGAATACATGGACCGGTTTTCCCGGTAATCCGTATTTGGA (site TAGAATACTTT)	0.731
ACATTGTCATGGACCGGTTTTCCCGGTAATCCGTATTTGCA (site ACAGTATCTTG)	1.37
GGCCACCCATGGACCGGTTTTCCCGGTAATCCGTATTTGAT (site GGCCACCCTAG)	0
AGGAATCCATGGACCGGTTTTCCCGGTAATCCGTATTTGTA (site CGGAATCCTAA)	0.00925
GATTGCCCATGGACCGGTTTTCCCGGTAATCCGTATTTGAT (site GCTTGCCCTAT)	0.0105
CTAGCTGCATGGACCGGTTTTCCCGGTAATCCGTATTTGTG (site CTAGCTGCTCA)	1.75
CCGGAACCATGGACCGGTTTTCCCGGTAATCCGTATTTGAT (site CCGGAACCTAT)	0
ACAGTATCATGGACCGGTTTTCCCGGTAATCCGTATTTGCA (site ACAGGATCTTT)	0
CGATCGTCATGGACCGGTTTTCCCGGTAATCCGTATTTGAT (site CGATCATCTAG)	0.00648
TAGCTATCATGGACCGGTTTTCCCGGTAATCCGTATTTGAA (site TAGCTACCTTT)	0.0124
GCCACGGCATGGACCGGTTTTCCCGGTAATCCGTATTTGTA (site GCCACGCCTTA)	0.106
ATACCACCATGGACCGGTTTTCCCGGTAATCCGTATTTGGT (site ATACCACCTAC)	0.0125
GTGGGTTCATGGACCGGTTTTCCCGGTAATCCGTATTTGCA (site GTGGGTTCTTG)	2.55
ACTTGAACATGGACCGGTTTTCCCGGTAATCCGTATTTGAG (site ACTTGAACTCT)	0.998
CGACTGGCATGGACCGGTTTTCCCGGTAATCCGTATTTGTA (site CGACTGGCTTA)	1.65
